Data reported in patent US20120034193A1, “TREATMENT OF NEUROTROPHIC FACTOR MEDIATED DISORDERS” (priority 2009, published 2012).
Marks after values point to notes of the source that are not given here.

How the values were obtained:
BDNF mRNA = BDNF mRNA expression in rat cortical neurones under basal conditions (rt RT-PCR); assay type: cell-based; settings: 30 nM
Procedure: Rat cortical neurones were cultured by modification of a method previously described (Singer, et al., Neuroscience Letters, 1996, 212, pp. 13-16). Twelve days after the start of culturing, sarsasapogenin (30 nM), smilagenin (30 nM), 4-methylcatechol (0.5 mM), an inducer of NGF and BDNF release (Saporito et al., Experimental Neurology., 1993, 123, pp. 295-302; Nitta et al., Journal of Pharmacology and Experimental Therapeutics, 1999, 291, pp. 1276-1283) or vehicle (dimethyl sulfoxide, DMSO, 0.25%) were added for 1, 3 or 6 h. After incubation the total messenger ribonucleic acid (mRNA) was quantified using real time reverse transcription-polymerase chain reaction (rt RT-PCR).

BDNF = BDNF protein in culture medium of rat cortical neurones exposed to β-amyloid; assay type: cell-based; settings: 10 μM pre-incubation 48 h, then β-amyloid 10 μg/ml 48 h
Procedure: (§1) Rat cortical neurones were cultured by modification of a method previously described (Eckenstein and Sofroniew, Journal of Neuroscience, 1983, 3, pp. 2286-2291). On day 8, the culture medium was changed to a medium containing vehicle (DMSO, 0.5%) or smilagenin or sarsasapogenin (10 μM). On day 10, rat primary cortical neurones were exposed to β-amyloid (10 μg/ml) for 48 h at 37° C. and the concentration of BDNF in the culture medium, the number of choline acetyltransferase (ChAT) positive cells, and the neurite outgrowth was measured (smilagenin only).

[1] = test system: rat primary cortical neurones; experiment: ChAT positive neurones and neurite outgrowth after β-amyloid exposure; assay type: cell-based; settings: 10 μM pre-incubation 48 h, then β-amyloid 10 μg/ml 48 h
Procedure: as §1

Rat cortical neurones = experiment: Reversal of glutamate-induced damage in cortical neurones; assay type: cell-based; settings: 30 nM for 24 h after glutamate 100 μM 10 min
Procedure: The rat cortical neurones were prepared as detailed above. On day 13, cultures were exposed to glutamate (100 μM) for 10 min at 37° C. in 5% CO2/95% air atmosphere in defined medium. Following the incubation period, the cultures were washed and maintained in fresh medium, containing sarsasapogenin, smilagenin or vehicle. Cells were cultured for a further 24 h after glutamate exposure and were then assessed for neuronal damage as detailed above.

C57b1/6 RJ mice = experiment: Sciatic nerve crush model; assay type: in vivo, Mouse; settings: for Degenerated fibres (% of control): nerve crush alone 109.10 ± 2.65
Description: The sciatic nerve crush model is a well characterised reversible model for motor neurone disease and post-traumatic nerve injuries (McMahon and Priestley, Current Opinion in Neurobiology, 1995, 5, pp. 616-624). The nerve damage is produced by mechanical pressure using haemostatic forceps, applied twice, 5 mm proximal to the trifurcation of the right sciatic nerve of these mice. […] The loss of nerve function recovers progressively over a 4-5 week period after the mechanical insult.
4-Methylcatechol (10 μg/kg/day, i.p.) was used as a positive control (Kaechi et al., Journal of Phamacology and Experimental Therapeutics, 1995, 272, pp. 1300-1304).
C57b1/6 RJ mice were anaesthetised with ketamine chlorhydrate (60 mg/kg, i.p.). The sciatic nerve was surgically exposed at mid thigh level and crushed at 5 mm proximal to the trifurcation of the sciatic nerve. The nerve was crushed twice for 30 s with a haemostatic forceps with a 90-degree rotation between each crush. […] The loss of nerve function recovered progressively over a 4-5 week period after mechanical insult. Electromyographic recordings were assessed as described above.

[2] = test system: Old Sprague Dawley (SD) rats; experiment: Y-maze learning and memory in aged rats; assay type: in vivo, Rat; settings: 18 mg/kg/day oral
Procedure: Old Sprague Dawley (SD) rats (20 month old) were orally administered sarsasapogenin or smilagenin (18 mg/kg/day) for 3 months. Young SD rats (4 month old) were used as healthy positive control and old SD rats (20 month old) were used as neurodegenerative control. A Y-maze was used to assess learning and memory, and was considered also a model of anxiety in light of the nature of the test that caused distress to the animal. On the floor of each arm of the Y-maze was an array of copper rods (2 mm×140 mm) to which an adjustable voltage electric current was applied when needed. Each arm was 450 mm long with a 15 W lamp at the end. Following 2 months of treatment each rat was trained for 7 consecutive days, once on each day. During each training session, a rat was put into one arm of the Y-maze and after 2 min an electrical current applied to the copper rods in the anti-clockwise arm and the lamp of the clockwise arm was illuminated, indicating the non-electrified area. If the rat went into the illuminated arm a correct response was recorded, otherwise a wrong response was recorded. This stimulation-response test was repeated 20 times each day, with a pause of 5 s between each test. The number of correct responses and the total time period for the 20 tests were recorded. A quotient of the number of correct responses divided by the total response time was calculated and used as an index for learning ability, with the higher the quotient the greater the learning ability. One month after the learning test (3 months of treatment) the Y-maze test was carried out again and the quotient obtained was used as an index for memory ability. At the end of the treatment the rats were killed and the brains removed for quantification of BDNF using an ELISA (data of BDNF presented in Example 3 above).

[3] = Tissue distribution after a single oral administration, rat; assay type: in vivo; settings: 18 mg/kg single oral
[4] = Long term oral toxicity study, non-rodents; assay type: in vivo; settings: high doses, up to 52 weeks in non-rodents

C[C@@H]1CC[C@@]2(OC1)O[C@H]1C[C@H]3[C@@H]4CC[C@@H]5C[C@@H](O)CC[C@]5(C)[C@H]4CC[C@]3(C)[C@H]1[C@@H]2C [Smilagenin, smilagenin]
BDNF mRNA, % increase above control (BDNF mRNA; 1 h): No increase
BDNF mRNA, % increase above control (BDNF mRNA; 3 h): 40%
BDNF mRNA, % increase above control (BDNF mRNA; 6 h): No increase
BDNF concentration (pg/ml) (BDNF): 4.20 ± 0.06****^,++++ pg/ml
Neurite outgrowth (% of control) [1]: 85.8 ± 4.0 % of control
Number of ChAT positive neurones per field (% of control) [1]: 70.1 ± 9.6 % of control
Neuronal survival (% of control) (Rat cortical neurones): 111.06 ± 3.40 % of control
Degenerated fibres (% of control) (C57b1/6 RJ mice; 0.3 mg/kg/day oral): 16.70 ± 4.23 % of control
Degenerated fibres (% of control) (C57b1/6 RJ mice; 3 mg/kg/day oral): −8.10 ± 6.03 % of control
Recovery of nerve function as measured by CMAP parameters (amplitude, latency, duration) (C57b1/6 RJ mice; sarsasapogenin 3, smilagenin 0.3 and 3 mg/kg/day, oral gavage in oil, 6 weeks): significantly improved the recovery of nerve function
Learning ability (correct response/total time) ([2]; 2 months, aged 2.39, young 5.97): 4.81 ± 0.32 correct response/total time
Memory ability (correct response/total time) ([2]; 3 months, aged 2.16, young 5.27): 4.58 ± 0.26 correct response/total time
Anxiety (Y-maze) ([2]; up to 3 months): reduce the anxiety
Concentration of compound, Brain ([3]; Rat F, 1 h): 704 ng equivalents/g tissue
Concentration of compound, Plasma ([3]; Rat F, 1 h): 1626 ng equivalents/g tissue
Concentration of compound, Spinal cord ([3]; Rat F, 1 h): 608 ng equivalents/g tissue
Concentration of compound, Brain ([3]; Rat F, 4 h): 2330 ng equivalents/g tissue
Concentration of compound, Plasma ([3]; Rat F, 4 h): 1824 ng equivalents/g tissue
Concentration of compound, Spinal cord ([3]; Rat F, 4 h): 2049 ng equivalents/g tissue
Concentration of compound, Brain ([3]; Rat F, 8 h): 2940 ng equivalents/g tissue
Concentration of compound, Plasma ([3]; Rat F, 8 h): 1658 ng equivalents/g tissue
Concentration of compound, Spinal cord ([3]; Rat F, 8 h): 2823 ng equivalents/g tissue
Concentration of compound, Brain ([3]; Rat F, 24 h): 954 ng equivalents/g tissue
Concentration of compound, Plasma ([3]; Rat F, 24 h): 394 ng equivalents/g tissue
Concentration of compound, Spinal cord ([3]; Rat F, 24 h): 1284 ng equivalents/g tissue
Concentration of compound, Brain ([3]; Rat F, 168 h): 52 ng equivalents/g tissue
Concentration of compound, Plasma ([3]; Rat F, 168 h): 46 ng equivalents/g tissue
Concentration of compound, Spinal cord ([3]; Rat F, 168 h): 243 ng equivalents/g tissue
Concentration of compound, Brain ([3]; Rat M, 1 h): 769 ng equivalents/g tissue
Concentration of compound, Plasma ([3]; Rat M, 1 h): 2045 ng equivalents/g tissue
Concentration of compound, Spinal cord ([3]; Rat M, 1 h): 958 ng equivalents/g tissue
Concentration of compound, Brain ([3]; Rat M, 4 h): 3372 ng equivalents/g tissue
Concentration of compound, Plasma ([3]; Rat M, 4 h): 3842 ng equivalents/g tissue
Concentration of compound, Spinal cord ([3]; Rat M, 4 h): 3286 ng equivalents/g tissue
Concentration of compound, Brain ([3]; Rat M, 8 h): 4457 ng equivalents/g tissue
Concentration of compound, Plasma ([3]; Rat M, 8 h): 3896 ng equivalents/g tissue
Concentration of compound, Spinal cord ([3]; Rat M, 8 h): 4520 ng equivalents/g tissue
Concentration of compound, Brain ([3]; Rat M, 24 h): 1417 ng equivalents/g tissue
Concentration of compound, Plasma ([3]; Rat M, 24 h): 857 ng equivalents/g tissue
Concentration of compound, Spinal cord ([3]; Rat M, 24 h): 1957 ng equivalents/g tissue
Concentration of compound, Brain ([3]; Rat M, 168 h): 122 ng equivalents/g tissue
Concentration of compound, Plasma ([3]; Rat M, 168 h): 122 ng equivalents/g tissue
Concentration of compound, Spinal cord ([3]; Rat M, 168 h): 256 ng equivalents/g tissue
Long term toxicity [4]: without showing any signs of toxicity or adverse events
